A short description of test [1]: Affinity to 2-aminopurine labeled hairpin A-site 16S rRNA by Electrospray ionization mass spectrometry.
Test [2] is described as follows: Affinity to hairpin A-site 16S rRNA by Electrospray ionization mass spectrometry.

pKd: −log10 of the molar value.

Usually pKd stands for −log10 of the Kd, conventionally taken in molar units. The low end stands for a high Kd, the high end for a low Kd.

For `NC[C@@H]1O[C@H](O[C@H]2[C@@H](O)[C@H](O[C@@H]3[C@@H](O)[C@H](N)C[C@H](N)[C@H]3O[C@H]3O[C@H](CO)[C@@H](O)[C@H](O)[C@H]3N)O[C@@H]2CO)[C@H](N)[C@@H](O)[C@@H]1O` [PAROMOMYCIN], the negative-log Kd (pKd) in test [1] is 6.01; in test [2], 6.43.

The values above are taken from ChEMBL document CHEMBL1143043, “Monitoring aminoglycoside-induced conformational changes in 16S rRNA through acrylamide quenching” (Bioorg Med Chem, 2007).
